Experimental data from publication PMC9011347, “Small-Molecule Inhibitors Targeting Lipolysis in Human Adipocytes” (Journal of the American Chemical Society, 2022).

What was measured:
Assay in all cases: TAG hydrolase assay, chimeric ATGL variants
Assay type in all cases: biochemical, human and mouse
[1] = biological target: T1, Variant c3 containing aa 1–23 of human ATGL (Homo sapiens, UniProt Q96AD5, F69I/F97C/G146T/H109R/I93T/K68N/N133S/S106C/S111N/S158T/S96G/V101T/V60A); settings: variant c3, NG-497 (10 μM) or Atglistatin (10 μM)
T1 construct: host or cells: Expi293 cells, cell lysate
Experimental: (§1) Figure 5 Analysis of chimeric proteins comprising human and mouse ATGL. (a) Schematic view of the minimal active domain of wild-type and chimeric ATGL variants (c1–c9). Nonidentical aa are indicated in blue and red for mouse and human ATGL, respectively. ATGL variants were expressed in Expi293 cells and TAG hydrolase activity was determined in cell lysates in the presence or absence of NG-497 (10 μM) and Atglistatin (10 μM), respectively. Inhibition of ATGL variants by respective inhibitors (tick mark) and lack of inhibition (cross) is indicated at the right edge. The expression of all ATGL variants was confirmed by Western blotting analysis (Figure S6). (b) Dose-dependent inhibition of human ATGL (aa 1–288) and c1 (human aa 1–158 and mouse aa 159–288) by NG-497. (c) Dose-dependent inhibition of mouse ATGL (aa 1–288) and c2 (mouse aa 1–158 and human aa 159–288) by Ai. IC50 values are shown in the insets. Data are presented as relative inhibition of respective DMSO controls and are indicated as mean ± SD. (d) 3D homology model of the minimal active domain of mouse ATGL (M1–L254) depicted as a cartoon. Residues 1–178 are in blue, and residues 179–254 are in gray. S47 and D166 comprising the active site are represented as green sticks. T101, C106, R109, N111, and S133 are colored in orange, A60, N68, I69, T93, C97, and T146 are colored in magenta. TEXT PRINTED IN THE PICTURE: (b) NG-497: IC50 [μM] (human): 1.3±0.1; IC50 [μM] (c1): 1.3±0.1 | (b) Ai: IC50 [μM] (human): n.det.; IC50 [μM] (c1): n.det. | (c) NG-497: IC50 [μM] (mouse): n.det.; IC50 [μM] (c2): n.det. | (c) Ai: IC50 [μM] (mouse): 2.5±0.3; IC50 [μM] (c2): 2.4±0.1 […]
(§2) We next generated variants by further stepwise humanization of c2. Variant c3 containing aa 1–23 of human ATGL was inhibited by Ai but not NG-497 (Figure 5a). […] Finally, variants of mouse ATGL containing aa 1–146 (c7) and 60–146 (c8) of human ATGL were inhibited by NG-497 but not Ai (Figure 5a).
(§3) Experimental details, materials, and methods
(§4) Expression of recombinant ATGL constructs and preparation of cell lysates. Expi293 cells were cultivated in Expi293 Expression Medium (GIBCO, Thermo Fisher Scientific, Waltham, USA) at standard conditions (37°C, 5% CO2, 95% humidified atmosphere, 125 rpm). DNA constructs containing ATGL from different species and chimeric ATGL variants in pcDNA3.1(+)myc-His C Vector were obtained from BioCat GmbH (Heidelberg, Germany). Cells were transfected with ExpiFectamine293 Transfection Kit (GIBCO) in Opti-Mem reduced serum medium (GIBCO) according to the manufacturer’s instructions. After 48 h, cells were harvested by centrifugation and washed three times with PBS. Cells were disrupted in buffer A (0.25 M sucrose, 1 mM EDTA, 1 mM dithiothreitol, 20µg/ml leupeptin, 2 µg/ml antipain, 1 µg/ml pepstatin, pH 7.0) by sonication (Virsonic 475, Virtis, Gardiner, USA). Nuclei and debris were removed by centrifugation at 1,000 g and 4°C for 10 min. Protein concentrations were determined using Bio-Rad protein assay (Bio-Rad 785, Bio-Rad Laboratories, Munich, Germany) using BSA as standard.
(§5) Expression and purification of mouse CGI-58. CGI-58 was expressed and purified as described 1. In brief, the coding sequence of mouse Cgi-58 was cloned into pHis-Sumo and co-transformed with the plasmid pTf16 expressing the chaperone Tig into E. coli BL21(DE3). Cells were cultured overnight at 37°C and 180 rpm in the presence of 40 µg/ml kanamycin and 34 µg/ml chloramphenicol. Thereafter, cells were transferred into fresh LB medium, grown until OD600 of 0.6, and expression was induced by the addition of 0.5 mM IPTG. After overnight incubation at 30°C, cells were harvested at 4,500 x g and 4°C for 20 min, washed in 1x PBS, and resuspended in lysis buffer (20 mM Tris/HCl pH 7.8, 300 mM NaCl, 30 mM imidazole, 0.1% IGEPAL CA-630, 3.5 mM β-mercaptoethanol, 20 µg/ml leupeptin, 2 µg/ml antipain and 1 µg/ml pepstatin). Cells were incubated with 1 […]

[2] = system: c8 (mouse ATGL containing aa 60–146 of human ATGL); settings: variant c8, NG-497 (10 μM) or Atglistatin (10 μM)
Experimental: as §1, §2, §3, §4, §5

[3] = biological target: T2, c7 (mouse ATGL containing aa 1–146 of human ATGL) (Mus musculus, UniProt Q8BJ56, A60V/C106S/C97F/G96S/H22Y/I23V/I69F/K7T/N111S/N68K/R109H/S133N/T101V/T146G/T6K/T93I); settings: variant c7, NG-497 (10 μM) or Atglistatin (10 μM)
T2 construct: host or cells: Expi293 cells, cell lysate
Experimental: as §1, §2, §3, §4, §5

T1 sequence (Q96AD5 1-288 V60A/K68N/F69I/I93T/S96G/F97C/V101T/S106C/H109R/S111N/N133S/G146T/S158T): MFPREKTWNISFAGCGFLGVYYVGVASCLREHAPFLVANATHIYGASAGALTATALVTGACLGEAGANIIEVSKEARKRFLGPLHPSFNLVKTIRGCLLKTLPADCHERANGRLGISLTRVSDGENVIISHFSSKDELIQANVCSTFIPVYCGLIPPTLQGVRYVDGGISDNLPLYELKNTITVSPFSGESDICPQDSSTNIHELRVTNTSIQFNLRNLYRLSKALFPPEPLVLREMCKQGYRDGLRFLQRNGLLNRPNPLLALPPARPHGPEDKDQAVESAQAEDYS
T2 sequence (Q8BJ56 1-288 with the stated changes limits assumed): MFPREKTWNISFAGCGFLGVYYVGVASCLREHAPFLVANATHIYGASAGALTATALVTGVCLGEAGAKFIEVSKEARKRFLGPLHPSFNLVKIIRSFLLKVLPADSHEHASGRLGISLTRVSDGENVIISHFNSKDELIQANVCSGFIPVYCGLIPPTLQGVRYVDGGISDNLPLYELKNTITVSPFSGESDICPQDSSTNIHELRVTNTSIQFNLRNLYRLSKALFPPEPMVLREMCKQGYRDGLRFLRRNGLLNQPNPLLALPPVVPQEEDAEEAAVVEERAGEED

SMILES | inhibition of TAG hydrolase activity [1] | inhibition of TAG hydrolase activity [2] | inhibition of TAG hydrolase activity [3]
CN(C)C(=O)Nc1cccc(-c2ccc(N(C)C)cc2)c1 [Atglistatin, reference compound] | inhibited |  | 
CCOc1ccc(-c2cc(OC)cc(C(=O)OC(C)C)n2)cc1 [NG-497] |  | inhibited | inhibited
